Experimental data as given in US7354938B2, “Pyrazole compounds and uses related thereto” (Amgen Inc., priority 2004, dated 2008).

These compounds were tested against T1, human HSD1 (recombinant HSD1) (Homo sapiens, UniProt P28845) (assay: In vitro HSD1 activity inhibitory action (SPA, conversion of cortisone to cortisol)). Conditions: recombinant human HSD1 expressed in baculo-virus system, 16 nM 3H cortisone, 500 μM NADPH, room temperature, 90 min.
T1 construct: made in house
Assay type: biochemical
Protocol: In Vitro HSD1 (Hydroxysteroid Dehydrogenase 1) Activity Inhibitory Action
The HSD1 inhibitory activity was examined by quantitative determination by an SPA (scintillation proximity assay) system of the suppressive action on the conversion from cortisone to cortisol using human HSD1 (hereinafter recombinant HSD1) expressed using a baculo-virus system as an enzyme source. For the reaction, a reagent was added to a 96 well plate (96 well Opti-plates™-96 (Packard)) to the following final concentration and a volume of 100 μl was reacted at room temperature for 90 min. The reaction solution used was 0.1 μg/mL recombinant HSD1,500 μM NADPH, 16 nM ^3H cortisone (Amersham Biosciences, 1.78 Tbq/mol) dissolved in 0.1% BSA (Sigma)-containing PBS and the test drug was 2 μl of a compound solution (dissolved in DMSO). After 90 min, the reaction was stopped by adding PBS (40 μl, containing 0.1% BSA (Sigma)) containing 0.08 μg of anti-cortisol mouse monoclonal antibody (East Coast Biologics), 365 μg SPA PVT mouse antibody-binding beads (Amersham Biosciences) and 175 μM carbenoxolone (Sigma) to the reaction solution. After the completion of the reaction, the plate was incubated overnight at room temperature and the radioactivity was measured by Topcount (Packard). For control, the value (0% inhibition) of the well containing 2 μl of DMSO instead of the test drug was used, and for positive control, the value (100% inhibition) of the well containing carbenoxolone instead of the test drug at the final concentration of 50 μM was used. The inhibition (%) of the test drug was calculated by ((value of control−value of test drug)/(value of control−value of positive control))×100 (%). The IC50 value was analyzed using a computer-based curve fitting soft.

T1 sequence (P28845 whole entry): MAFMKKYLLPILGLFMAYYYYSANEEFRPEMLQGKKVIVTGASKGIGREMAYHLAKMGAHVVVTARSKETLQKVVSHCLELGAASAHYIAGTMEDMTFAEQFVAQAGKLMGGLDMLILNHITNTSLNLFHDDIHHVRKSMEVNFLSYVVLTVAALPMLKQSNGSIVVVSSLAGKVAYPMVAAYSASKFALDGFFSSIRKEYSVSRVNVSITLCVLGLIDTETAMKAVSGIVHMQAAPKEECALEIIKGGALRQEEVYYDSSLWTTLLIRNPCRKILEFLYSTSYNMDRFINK

IC50 | Structure (SMILES)
< 10 nM | Cc1c(-c2ccc(Cl)cc2Cl)n[nH]c1C1(c2ccccc2)CC1 [Ex. 1-1, 3-(2,4-dichlorophenyl)-4-methyl-5-((1-phenylcyclopropane)-1-yl)-pyrazole]
10 to 1000 nM | OCc1c(-c2ccc(Cl)cc2Cl)n[nH]c1Cc1ccc(F)cc1 [Ex. 1-8]
10 to 1000 nM | Cc1c(-c2ccc(N3CCOC3=O)cc2Cl)n[nH]c1C1(c2ccccc2)CC1 [Ex. 1-14]
< 10 nM | Cc1c(-c2ccccn2)n[nH]c1C1(c2ccc(F)cc2)CC1 [Ex. 1-15]
< 10 nM | Cc1c(C2(c3ccc(F)cc3)CC2)n[nH]c1C1(c2ccc(F)cc2)CC1 [Ex. 1-16]

More lines, now with the values behind:

Structure (SMILES) | IC50
Clc1ccc(-c2cc(CCc3ccccc3Cl)n[nH]2)c(Cl)c1 [Ex. 1-2] | 10 to 1000 nM
Cc1c(CCc2ccccc2Cl)n[nH]c1-c1ccc(Cl)cc1Cl [Ex. 1-3] | < 10 nM
CCOC(=O)c1c(-c2ccc(Cl)cc2Cl)n[nH]c1C1(c2ccccc2)CC1 [Ex. 1-4] | 10 to 1000 nM
Clc1ccc(-c2cc(C3(c4ccccc4)CC3)[nH]n2)c(Cl)c1 [Ex. 1-5] | 10 to 1000 nM
Cc1c(-c2ccc(Cl)cc2Cl)n[nH]c1Cc1ccc(F)cc1 [Ex. 1-9] | 10 to 1000 nM
Cc1c(C2CCN(c3c(Cl)cncc3Cl)CC2)n[nH]c1C1(c2ccccc2)CC1 [Ex. 1-10] | 10 to 1000 nM
Cc1c(C2CCN(c3ncccc3Cl)CC2)n[nH]c1C1(c2ccccc2)CC1 [Ex. 1-11] | < 10 nM
CC(C)c1c(-c2ccccc2)n[nH]c1C1(c2ccc(F)cc2)CC1 [Ex. 1-12] | < 10 nM
Cc1c(-c2ccccc2)n[nH]c1C1(c2ccc(F)cc2)CC1 [Ex. 1-13] | < 10 nM
